Data taken from patent publication US10864246B2, “Method for lowering triglyceride” (Centro De Investigación En Alimentación Y Desarrollo, A.C. …, priority 2011, dated 2020).

How the values were obtained:
[1] = tested on: spontaneously hypertensive rats (SHR); assay: Single-dose oral administration in SHR, tail cuff blood pressure and heart rate; assay type: in vivo, rat; conditions: single oral dose 40 mg/kg BW
Description: However, the relationship between ACEI and the in vivo action had to be tested. Therefore, the antihypertensive and heart rate (HR) lowering effect of milk fermented by specific L. lactis in a murine model was investigated. Spontaneously hypertensive male rats (SHR) (271±14 g) were randomized into […]: oral administration of milk fermented by L. lactis NRRL B-50571 or L. lactis NRRL B-50572 at 35 or 50 mg protein/kg of body weight (BW). Two more groups were fed with different solutions as controls: a saline solution was the negative control, meanwhile captopril (40 mg/kg BW), a proven ACE inhibitor was the positive control. Blood pressure and heart rate were monitored by the tail cuff method before treatments and 2, 4, 6 and 24 h post oral administration. […] Thus, milk fermented by specific L. lactis strains present potential benefits in the prevention and treatment of cardiovascular diseases associated to hypertension in humans. Samples of specific L. lactis fermented milk (prepared as previously described) for the single dose bioassay were obtained by centrifugation at 20,000×g for 10) min at 0° C. […] SHR were weaned for eight weeks and their systolic blood pressure monitored during this period. […] Systolic blood pressure (SBP), diastolic blood pressure (DBP) as well as heart rate (HR) were monitored before administration and 2, 4, 6 and 24 h post-administration. […]

[2] = tested on: spontaneously hypertensive rats (SHR); assay: Long-term (4 weeks) consumption in SHR, tail-cuff blood pressure; assay type: in vivo, rat
Description: SHR were feed ad libitum with milk fermented by L. lactis NRRL B-50571, L. lactis NRRL B-50572, captopril (40 mg/kg body weight) or purified water for four weeks. […] Additionally, milk fermented by L. lactis strains modified SHR lipid profiles. Milk fermented by L. lactis NRRL B-50571 and B-50572 was able to reduce plasma low-density lipoprotein (LDL) cholesterol by 55.4±3 mg/dL and 66.3±4 mg/dL, respectively. Thus, milk fermented by L. lactis strains may be a coadjuvant in the reduction of hypertension and hyperlipidemia and may be used as a functional food for better cardiovascular health. […] Subsequently, samples were frozen at −20° C. All fermented milk samples were daily unfrozen and homogenized (for 20 minutes before use. Thirty-two male SHR were obtained from Harlan Laboratories, Inc., (Indianapolis, Ill., USA). The rats were randomly housed in pairs per cage at 21±2° C. with 12 h light/dark cycles, 52±6% relative humidity and with ad libitum intake of a standard diet (TEKLAD, Harlan Laboratories, USA) during the experiment. SHR (27-28 weeks old and 355±24 g weight) were divided into four groups of eight rats (n=8): purified water (negative control), captopril (proven hypotensive drug, positive control) (40 mg/kg body weight (BW), milk fermented by L. lactis NRRL B-50571 and milk fermented by L. lactis NRRL 50572. All SHR had free access to each treatment during three weeks as part of the protocol. Half of the animals were sacrificed at the end of that period. The rest of the SHR only received purified water during one more week before being sacrificed. A research animal protocol was followed according to the guidelines established by the institutional (CIAD, A.C.) Ethics Committee. The lowering blood pressure effect of milk fermented by specific L. lactis strains on SHR was monitored through time. […] Systolic (SBP) and diastolic (DBP) blood pressures were measured five times on each conscious animal before treatments and every week during the experiment. […]

For C[C@H](CS)C(=O)N1CCC[C@H]1C(=O)O [captopril], the “decrease of SBP” value ([1]; 6 h, significantly different from the treatments) was “maximum decrease”, the DBP reduction ([1]; each measurement (2, 4, 6, 24 h)) was “maximum DBP reduction” and the SBP reduction ([2]; fourth week (only water in last week), fermented milk ad libitum, captopril 40 mg/kg BW) was 28.1±1.8 mm Hg. The “effect on SBP” value ([2]; second and third week) was “marked lowering-effect” and the DBP reduction ([2]; second week, fermented milk ad libitum, captopril 40 mg/kg BW) was 38.4±8.5 mm Hg.
